Reference: paper PMC10893631, “Receptor-based pharmacophore modeling, molecular docking, synthesis and biological evaluation of novel VEGFR-2, FGFR-1, and BRAF multi-kinase inhibitors” (BMC Chemistry, 2024)

What was measured:
Test in all cases: NCI SRB growth inhibition (single dose 10 µM / five-dose)
Format in all cases: cell-based, human
NCI-H460 = conditions: Homo sapiens; for inhibition at 10 µM: NCI-H460 (Non-small cell lung cancer), read-out: GI%; for GI50: NCI-H460, Non-small cell lung cancer, five-dose
In short: (§1)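 Two-stage NCI-60 screen: single-dose test first, then five-dose testing. Growth is scored by sulforhodamine B staining of TCA-fixed cells relative to a time-zero plate, and TGI is taken where Ti = Tz.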

SR = conditions: Homo sapiens; for inhibition at 10 µM: SR (Leukemia), read-out: GI%; for GI50: SR, Leukemia, five-dose
In short: as §1

SN12C = conditions: Homo sapiens; SN12C, Renal cancer; five-dose
In short: as §1

SK-OV-3 = conditions: Homo sapiens; for inhibition at 10 µM: SK-OV-3 (Ovarian cancer), read-out: GI%; for GI50: SK-OV-3, Ovarian cancer, five-dose
In short: as §1

A549/ATCC = conditions: Homo sapiens; for inhibition at 10 µM: A549/ATCC (Non-small cell lung cancer), read-out: GI%; for GI50: A549/ATCC, Non-small cell lung cancer, five-dose
In short: as §1

HS 578 T = conditions: Homo sapiens; for inhibition at 10 µM: HS 578 T (Breast cancer), read-out: GI%; for GI50: HS 578 T, Breast cancer, five-dose
In short: as §1

CCRF-CEM = conditions: Homo sapiens; for inhibition at 10 µM: CCRF-CEM (Leukemia), read-out: GI%; for GI50: CCRF-CEM, Leukemia, five-dose
In short: as §1

UACC-62 = conditions: Homo sapiens; for inhibition at 10 µM: UACC-62 (Melanoma), read-out: GI%; for GI50: UACC-62, Melanoma, five-dose
In short: as §1

M14 = conditions: Homo sapiens; for inhibition at 10 µM: M14 (Melanoma), read-out: GI%; for GI50: M14, Melanoma, five-dose
In short: as §1

MCF7 = conditions: Homo sapiens; for inhibition at 10 µM: MCF7 (Breast cancer), read-out: GI%; for GI50: MCF7, Breast cancer, five-dose
In short: as §1

SF-539 = conditions: Homo sapiens; for inhibition at 10 µM: SF-539 (CNS cancer), read-out: GI%; for GI50: SF-539, CNS cancer, five-dose
In short: as §1

MDA-MB-231/ATCC = conditions: Homo sapiens; for inhibition at 10 µM: MDA-MB-231/ATCC (Breast cancer), read-out: GI%; for GI50: MDA-MB-231/ATCC, Breast cancer, five-dose
In short: as §1

SF-295 = conditions: Homo sapiens; for inhibition at 10 µM: SF-295 (CNS cancer), read-out: GI%; for GI50: SF-295, CNS cancer, five-dose
In short: as §1

SF-268 = conditions: Homo sapiens; for inhibition at 10 µM: SF-268 (CNS cancer), read-out: GI%; for GI50: SF-268, CNS cancer, five-dose
In short: as §1

RXF 393 = conditions: Homo sapiens; for inhibition at 10 µM: RXF 393 (Renal cancer), read-out: GI%; for GI50: RXF 393, Renal cancer, five-dose
In short: as §1

SK-MEL-28 = conditions: Homo sapiens; for inhibition at 10 µM: SK-MEL-28 (Melanoma), read-out: GI%; for GI50: SK-MEL-28, Melanoma, five-dose
In short: as §1

TK-10 = conditions: Homo sapiens; for inhibition at 10 µM: TK-10 (Renal cancer), read-out: GI%; for GI50: TK-10, Renal cancer, five-dose
In short: as §1

786–0 = conditions: Homo sapiens; for inhibition at 10 µM: 786–0 (Renal cancer), read-out: GI%; for GI50: 786–0, Renal cancer, five-dose
In short: as §1

CAKI-1 = conditions: Homo sapiens; for inhibition at 10 µM: CAKI-1 (Renal cancer), read-out: GI%; for GI50: CAKI-1, Renal cancer, five-dose
In short: as §1

OVCAR-8 = conditions: Homo sapiens; for inhibition at 10 µM: OVCAR-8 (Ovarian cancer), read-out: GI%; for GI50: OVCAR-8, Ovarian cancer, five-dose
In short: as §1

MDA-MB-435 = conditions: Homo sapiens; for inhibition at 10 µM: MDA-MB-435 (Melanoma), read-out: GI%; for GI50: MDA-MB-435, Melanoma, five-dose
In short: as §1

MDA-MB-468 = conditions: Homo sapiens; for inhibition at 10 µM: MDA-MB-468 (Breast cancer), read-out: GI%; for GI50: MDA-MB-468, Breast cancer, five-dose
In short: as §1

SW-620 = conditions: Homo sapiens; for inhibition at 10 µM: SW-620 (Colon cancer), read-out: GI%; for GI50: SW-620, Colon cancer, five-dose
In short: as §1

BT-549 = conditions: Homo sapiens; for inhibition at 10 µM: BT-549 (Breast cancer), read-out: GI%; for GI50: BT-549, Breast cancer, five-dose
In short: as §1

EKVX = conditions: Homo sapiens; for inhibition at 10 µM: EKVX (Non-small cell lung cancer), read-out: GI%; for GI50: EKVX, Non-small cell lung cancer, five-dose
In short: as §1

KM12 = conditions: Homo sapiens; for inhibition at 10 µM: KM12 (Colon cancer), read-out: GI%; for GI50: KM12, Colon cancer, five-dose
In short: as §1

Structure (SMILES): COc1ccc(-c2nc3cc(C(=O)NN=Cc4cccc(OC)c4)ccc3[nH]2)cc1 [8j, N'-(3-Methoxybenzylidene)-2-(4-methoxyphenyl)-1H-benzo[d]imidazole-5-carbohydrazide]
- inhibition at 10 µM (NCI-H460): > 100%
- GI50 (NCI-H460): 1850 nM
- inhibition at 10 µM (SR): 92.7%
- GI50 (SR): 10600 nM
- GI50 (SN12C): 2780 nM
- inhibition at 10 µM (SK-OV-3): 68.3%
- GI50 (SK-OV-3): 5390 nM
- inhibition at 10 µM (A549/ATCC): > 100%
- GI50 (A549/ATCC): 3050 nM
- inhibition at 10 µM (HS 578 T): > 100%
- GI50 (HS 578 T): 1900 nM
- inhibition at 10 µM (CCRF-CEM): 35%
- GI50 (CCRF-CEM): 7910 nM
- inhibition at 10 µM (UACC-62): 58.9%
- GI50 (UACC-62): 6500 nM
- inhibition at 10 µM (M14): 70.4%
- GI50 (M14): 3420 nM
- inhibition at 10 µM (MCF7): > 100%
- GI50 (MCF7): 2500 nM
- inhibition at 10 µM (SF-539): 34.1%
- GI50 (SF-539): 11500 nM
- inhibition at 10 µM (MDA-MB-231/ATCC): > 100%
- GI50 (MDA-MB-231/ATCC): 2430 nM
- inhibition at 10 µM (SF-295): 167%
- GI50 (SF-295): 2930 nM
- inhibition at 10 µM (SF-268): 84.7%
- GI50 (SF-268): 3280 nM
- inhibition at 10 µM (RXF 393): > 100%
- GI50 (RXF 393): 2260 nM
- inhibition at 10 µM (SK-MEL-28): 64.2%
- GI50 (SK-MEL-28): 3930 nM
- inhibition at 10 µM (TK-10): > 100%
- GI50 (TK-10): 12600 nM
- inhibition at 10 µM (786–0): > 100%
- GI50 (786–0): 3840 nM
- inhibition at 10 µM (CAKI-1): 85.3%
- GI50 (CAKI-1): 2810 nM
- inhibition at 10 µM (OVCAR-8): > 100%
- GI50 (OVCAR-8): 1920 nM
- inhibition at 10 µM (MDA-MB-435): 76.5%
- GI50 (MDA-MB-435): 6250 nM
- inhibition at 10 µM (MDA-MB-468): > 100%
- GI50 (MDA-MB-468): 3060 nM
- inhibition at 10 µM (SW-620): > 100%
- GI50 (SW-620): 3100 nM
- inhibition at 10 µM (BT-549): 29.8%
- GI50 (BT-549): 5470 nM
- inhibition at 10 µM (EKVX): > 100%
- GI50 (EKVX): 2760 nM
- inhibition at 10 µM (KM12): > 100%
- GI50 (KM12): 4340 nM

Structure (SMILES): COc1ccc(-c2nc3cc(C(=O)NN=Cc4cccc(OC)c4O)ccc3[nH]2)cc1 [8k, N'-(2-Hydroxy-3-methoxybenzylidene)-2-(4-methoxyphenyl)-1H-benzo[d]imidazole-5-carbohydrazide]
- inhibition at 10 µM (NCI-H460): > 100%
- GI50 (NCI-H460): 3270 nM
- inhibition at 10 µM (SR): > 100%
- GI50 (SR): 2060 nM
- GI50 (SN12C): 3810 nM
- inhibition at 10 µM (SK-OV-3): > 100%
- GI50 (SK-OV-3): 4310 nM
- inhibition at 10 µM (A549/ATCC): 76.7%
- GI50 (A549/ATCC): 9040 nM
- inhibition at 10 µM (HS 578 T): 89.3%
- GI50 (HS 578 T): 2220 nM
- inhibition at 10 µM (CCRF-CEM): > 100%
- GI50 (CCRF-CEM): 1050 nM
- inhibition at 10 µM (UACC-62): 98%
- GI50 (UACC-62): 2780 nM
- inhibition at 10 µM (M14): 91%
- GI50 (M14): 2810 nM
- inhibition at 10 µM (MCF7): > 100%
- GI50 (MCF7): 1720 nM
- inhibition at 10 µM (SF-539): > 100%
- GI50 (SF-539): 2800 nM
- inhibition at 10 µM (MDA-MB-231/ATCC): 97.7%
- GI50 (MDA-MB-231/ATCC): 2800 nM
- inhibition at 10 µM (SF-295): 96.4%
- GI50 (SF-295): 2480 nM
- inhibition at 10 µM (SF-268): > 100%
- GI50 (SF-268): 2160 nM
- inhibition at 10 µM (RXF 393): > 100%
- GI50 (RXF 393): 2580 nM
- inhibition at 10 µM (SK-MEL-28): > 100%
- GI50 (SK-MEL-28): 3320 nM
- inhibition at 10 µM (TK-10): 40%
- GI50 (TK-10): > 100000 nM
- inhibition at 10 µM (786–0): > 100%
- GI50 (786–0): 3690 nM
- inhibition at 10 µM (CAKI-1): 84.6%
- GI50 (CAKI-1): 3640 nM
- inhibition at 10 µM (OVCAR-8): > 100%
- GI50 (OVCAR-8): 2710 nM
- inhibition at 10 µM (MDA-MB-435): 76%
- GI50 (MDA-MB-435): 6200 nM
- inhibition at 10 µM (MDA-MB-468): > 100%
- GI50 (MDA-MB-468): 1950 nM
- inhibition at 10 µM (SW-620): 98.8%
- GI50 (SW-620): 4350 nM
- inhibition at 10 µM (BT-549): > 100%
- GI50 (BT-549): 2850 nM
- inhibition at 10 µM (EKVX): 98.1%
- GI50 (EKVX): 2300 nM
- inhibition at 10 µM (KM12): > 100%
- GI50 (KM12): 2450 nM
